Key:
ryegrass, Italian = test: Test A pre-/postemergence herbicide test; type: in vivo, Lolium multiflorum
In short: (§1)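 Planted in loam–sand blend; treated the same day preemergence by directed soil spray, while separately grown plants at one- to two-leaf stage got postemergence spray. Compared visually with untreated controls after approximately 10 days; 100 means complete control.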

pigweed = test: Test A pre-/postemergence herbicide test; type: in vivo, Amaranthus retroflexus
In short: as §1

corn = test: Test C pre-/postemergence herbicide test; type: in vivo, Zea mays
In short: (§2)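 Test compounds, formulated in a surfactant-containing non-phytotoxic solvent blend, are applied to seeded loam/sand soil (preemergence) and to young plants at the 1- to 4-leaf stage in peat-based medium (postemergence). Plants stay 13 to 15 days under greenhouse conditions, then are scored visually relative to controls, 0 = no effect, 100 = complete control.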

barnyardgrass = test: Test A pre-/postemergence herbicide test; type: in vivo, Echinochloa crus-galli
In short: as §1

kochia = test: Test C pre-/postemergence herbicide test; type: in vivo, Kochia scoparia; settings: Postemergence
In short: as §2

ragweed = test: Test C pre-/postemergence herbicide test; type: in vivo, Ambrosia elatior
In short: as §2

chickweed = test: Test C postemergence herbicide test; type: in vivo, Stellaria media
In short: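 Response is scored visually on a 0–100 scale (100 = complete control) relative to untreated controls, 13 to 15 days after treatment. Plants were sprayed postemergence at the 1- to 4-leaf stage (2 to 18 cm tall) and kept in a greenhouse.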

nutsedge, yellow = test: Test C pre-/postemergence herbicide test; type: in vivo, Cyperus esculentus
In short: as §2

oat, wild = test: Test C pre-/postemergence herbicide test; type: in vivo, Avena fatua; settings: Postemergence
In short: as §2

[1] = Postemergence, 125 g ai/ha, visual rating on 0 to 100 scale (0 no effect, 100 complete control), approx. 10 days
[2] = Postemergence, 500 g ai/ha, 0 to 100 scale (0 no effect, 100 complete control)
[3] = Preemergence, 125 g ai/ha, 0 to 100 scale where 0 is no effect and 100 is complete control
[4] = preemergence, 500 g ai/ha, 0 to 100 scale, 0 is no effect and 100 is complete control
[5] = Postemergence, 16 g ai/ha, scale 0 to 100 (0 no effect, 100 complete control)
[6] = Postemergence, 31 g ai/ha, scale 0 to 100 (0 no effect, 100 complete control)
[7] = Postemergence, 62 g ai/ha, scale 0 (no effect) to 100 (complete control)
[8] = Postemergence, 125 g ai/ha, scale 0 to 100 (0 no effect, 100 complete control)
[9] = Preemergence, 31 g ai/ha, scale 0 to 100, 0 is no effect and 100 is complete control
[10] = Preemergence, 62 g ai/ha, scale 0 to 100 (0 no effect, 100 complete control)
[11] = Preemergence, 125 g ai/ha, scale 0 to 100 (0 no effect, 100 complete control)
[12] = Preemergence, 16 g ai/ha, scale 0 to 100
[13] = 16 g ai/ha, scale 0 to 100 (0 no effect, 100 complete control)
[14] = 31 g ai/ha, scale 0 to 100 (0 no effect, 100 complete control)
[15] = 62 g ai/ha, scale 0 (no effect) to 100 (complete control)
[16] = 125 g ai/ha, scale 0 to 100 (0 no effect, 100 complete control)
[17] = Preemergence, 500 g ai/ha, visual rating on 0 to 100 scale (0 no effect, 100 complete control)
[18] = Postemergence, 250 g ai/ha, scale 0 to 100 (0 no effect, 100 complete control)
[19] = Preemergence, 125 g ai/ha, scale 0 to 100
[20] = 250 g ai/ha, scale 0 to 100 (0 no effect, 100 complete control)

CN1CC(c2cccc(C(F)(F)F)c2)C(C(=O)Nc2ccccc2F)C1=O (stereo not shown) [Compound 277]
20: Plant response rating, Pigweed (pigweed; [3]) | Plant response rating, Corn (corn; [7]) | Nutsedge, Yellow plant response rating (nutsedge, yellow; [10]) | Plant response rating, Nutsedge, Yellow (nutsedge, yellow; [11])
0: Plant response rating, Corn (corn; [5]) | Plant response rating, Corn (corn; [6]) | Plant response rating, Corn (corn; [12]) | Plant response rating, Kochia (kochia; [13]) | Plant response rating, Kochia (kochia; [14]) | Ragweed plant response rating (ragweed; [9]) | Ragweed plant response rating (ragweed; [10]) | Plant response rating, Ragweed (ragweed; [12]) | Plant response rating, Chickweed (chickweed; [13]) | Plant response rating, Chickweed (chickweed; [15]) | Plant response rating, Nutsedge, Yellow (nutsedge, yellow; [5]) | Plant response rating, Nutsedge, Yellow (nutsedge, yellow; [7]) | Plant response rating, Nutsedge, Yellow (nutsedge, yellow; [8]) | Nutsedge, Yellow plant response rating (nutsedge, yellow; [9]) | Plant response rating, Nutsedge, Yellow (nutsedge, yellow; [12]) | Plant response rating, Oat, Wild (oat, wild; [13]) | Plant response rating, Oat, Wild (oat, wild; [14]) | Plant response rating, Oat, Wild (oat, wild; [15])
40: Plant response rating, Ryegrass, Italian (ryegrass, Italian; [2]) | Plant response rating, Ragweed (ragweed; [6]) | Plant response rating, Ragweed (ragweed; [8]) | Plant response rating, Ragweed (ragweed; [11]) | Plant response rating, Chickweed (chickweed; [14]) | Plant response rating, Chickweed (chickweed; [16])
25: Corn plant response rating (corn; [9])
35: Plant response rating, Ragweed (ragweed; [7])
60: Plant response rating, Kochia (kochia; [16])
30: Plant response rating, Ryegrass, Italian (ryegrass, Italian; [1]) | Plant response rating, Ryegrass, Italian (ryegrass, Italian; [3]) | Plant response rating, Ryegrass, Italian (ryegrass, Italian; [4]) | Plant response rating, Pigweed (pigweed; [1]) | Plant response rating, Pigweed (pigweed; [2]) | Plant response rating, Pigweed (pigweed; [4])
10: Plant response rating, Corn (corn; [8]) | Plant response rating, Ragweed (ragweed; [5]) | Plant response rating, Nutsedge, Yellow (nutsedge, yellow; [6])
85: Corn plant response rating (corn; [10])
90: Plant response rating, Corn (corn; [11]) | Plant response rating, Barnyardgrass (barnyardgrass; Postemergence, 125 g ai/ha, 0 to 100 scale, 0 is no effect, 100 is complete control) | Plant response rating, Barnyardgrass (barnyardgrass; [2]) | Plant response rating, Barnyardgrass (barnyardgrass; [3]) | Plant response rating, Barnyardgrass (barnyardgrass; [4])
5: Plant response rating, Kochia (kochia; [15]) | Plant response rating, Oat, Wild (oat, wild; [16])

O=C1NCC(c2cccc(Br)c2)C1C(=O)Nc1cccc(F)c1F (stereo not shown) [Compound 309]
25: Plant response rating, Ragweed (ragweed; [19])
40: Plant response rating, Ragweed (ragweed; [18])
35: Plant response rating, Ragweed (ragweed; [8])
20: Ryegrass, Italian plant response rating (ryegrass, Italian; [17]) | Plant response rating, Corn (corn; [18])
70: Plant response rating (scale of 0 to 100), Corn (corn; Preemergence, 250 g ai/ha) | Plant response rating, Chickweed (chickweed; [20])
90: Plant response rating, Barnyardgrass (barnyardgrass; [2])
75: Plant response rating, Kochia (kochia; [20])
80: Plant response rating, Barnyardgrass (barnyardgrass; [1]) | Plant response rating, Barnyardgrass (barnyardgrass; [3]) | Barnyardgrass plant response rating (barnyardgrass; [17])
50: Plant response rating, Chickweed (chickweed; [15])
10: Plant response rating, Ryegrass, Italian (ryegrass, Italian; [1]) | Ragweed plant response rating (ragweed; [10])
5: Plant response rating, Kochia (kochia; [14]) | Plant response rating, Kochia (kochia; [15]) | Plant response rating, Nutsedge, Yellow (nutsedge, yellow; [7])
65: Plant response rating, Corn (corn; [19]) | Plant response rating (scale of 0 to 100), Ragweed (ragweed; Preemergence, 250 g ai/ha) | Plant response rating, Chickweed (chickweed; [16])
30: Plant response rating, Ryegrass, Italian (ryegrass, Italian; [2]) | Plant response rating, Chickweed (chickweed; [14]) | Plant response rating, Nutsedge, Yellow (nutsedge, yellow; [8])
0: Plant response rating, Ryegrass, Italian (ryegrass, Italian; [3]) | Plant response rating, Pigweed (pigweed; [1]) | Plant response rating, Pigweed (pigweed; [2]) | Plant response rating, Pigweed (pigweed; [3]) | Pigweed plant response rating (pigweed; [17]) | Plant response rating, Corn (corn; [6]) | Plant response rating, Corn (corn; [7]) | Plant response rating, Corn (corn; [8]) | Corn plant response rating (corn; [9]) | Corn plant response rating (corn; [10]) | Plant response rating, Ragweed (ragweed; [6]) | Plant response rating, Ragweed (ragweed; [7]) | Plant response rating, Nutsedge, Yellow (nutsedge, yellow; [6]) | Plant response rating, Nutsedge, Yellow (nutsedge, yellow; [18]) | Nutsedge, Yellow plant response rating (nutsedge, yellow; [9]) | Nutsedge, Yellow plant response rating (nutsedge, yellow; [10]) | Plant response rating, Nutsedge, Yellow (nutsedge, yellow; [19]) | Plant response rating (scale of 0 to 100), Nutsedge, Yellow (nutsedge, yellow; Preemergence, 250 g ai/ha) | Plant response rating, Oat, Wild (oat, wild; [14]) | Plant response rating, Oat, Wild (oat, wild; [15]) | Plant response rating, Oat, Wild (oat, wild; [16]) | Plant response rating, Oat, Wild (oat, wild; [20])

Source: US10294202B2, “Pyrrolidinones as herbicides” (FMC Corporation, priority 2013, dated 2019)
